In publication PMC12281424, “A Rac-specific competitive inhibitor of guanine nucleotide binding reduces metastasis in triple-negative breast cancer” (Cell Reports Medicine, 2025):
pKd: −log10 of the molar value.

How the values were obtained:
[1] = system: 4T1 tumor cells; test: Syngeneic breast cancer model; format: in vivo, mouse; conditions: BALB/c mice
Procedure: Figure 6 A41 decreases metastasis of TNBC cells in vivo (A) Representative images of luciferase bioluminescence intensities (BLI) in whole body, legs, and ovaries/uterus 4 weeks after resection of MD1-MB-468 Luc tumor in NMRI nude mice not treated (control) and treated with A41 (25 mg/kg/day, intraperitoneally for 4 weeks). (B) Metastasis frequency quantification based on ex vivo BLI measurements in indicated organs from control (black bars) and A41-treated mice 4 weeks after tumor resection (white bars) (N = 10–15 mice; ∗p < 0.05 vs. controls). (C) BLI quantification in legs and ovaries/uterus from control (black squares) and A41-treated (white squares) NMRI nude mice 4 weeks after tumor resection (N = 10–15 mice; ∗p < 0.05 vs. controls). (D) Cumulative proportion of immunocompetent control (red) and A41-treated mice (blue) displaying regrowth of the primary tumor after its resection. (E) Metastasis frequency quantified from ex vivo BLI measurements in leg bones, lungs, kidneys, and ovaries/uterus from immunocompetent control (black bar) and A41-treated (white bar) mice (N = 10 mice; ∗p < 0.05 vs. control). (F) Survival curve of immunocompetent control (red) and A41-treated mice (blue) after primary tumor resection (day 0).
To circumvent this limitation and evaluate if the immune system could affect the anti-metastatic property of A41, we evaluated its effect in a syngeneic model. We injected murine 4T1 tumor cells into the mammary fat pad of immunocompetent BALB/c mice.

[2] = molecular target: Adrenergic β2 (Homo sapiens, UniProt P07550); test: Safety screen; format: binding
Procedure: (§1) Blood cell counts, kinase profiler, safety screen, bacterial cytotoxicity, Ames, micronucleus assays were performed by the company Eurofins (France). The kinase profiler was performed by the company Eurofins (Discovery, Panlab and Cerep).

[3] = molecular target: Calcium Channel N-Type (Rattus norvegicus, UniProt Q02294); test: Safety screen; format: binding
[4] = molecular target: Endothelin ETA (Homo sapiens, UniProt P25101); test: Safety screen; format: binding
Procedure: (§2) Blood cell counts, kinase profiler, safety screen, bacterial cytotoxicity, Ames, micronucleus assays were performed by the company Eurofins (France).

[5] = molecular target: Opiate δ1 (OP1, DOP) (Homo sapiens, UniProt P41143); test: Safety screen; format: binding
Procedure: as §2

[6] = molecular target: Aurora-A(h) (Homo sapiens, UniProt O14965); test: Kinase Profiler; format: biochemical
Procedure: as §1

[7] = molecular target: CDK2/cyclinA(h) (Homo sapiens, UniProt P24941); test: Kinase Profiler; format: biochemical
Procedure: as §1

[8] = molecular target: CDK9/cyclin T1(h) (Homo sapiens, UniProt P50750); test: Kinase Profiler; format: biochemical
Procedure: as §1

[9] = molecular target: CLK1(h) (Homo sapiens, UniProt P49759); test: Kinase Profiler; format: biochemical
Procedure: (§3) The kinase profiler was performed by the company Eurofins (Discovery, Panlab and Cerep).

[10] = molecular target: DAPK1(h) (Homo sapiens, UniProt P53355); test: Kinase Profiler; format: biochemical
Procedure: as §3

[11] = molecular target: EphA8(h) (Homo sapiens, UniProt P29322); test: Kinase Profiler; format: biochemical
Procedure: as §1

[12] = molecular target: GRK5(h) (Homo sapiens, UniProt P34947); test: Kinase Profiler; format: biochemical
Procedure: as §1

[13] = molecular target: GSK3α(h) (Homo sapiens, UniProt P49840); test: Kinase Profiler; format: biochemical
Procedure: as §1

[14] = molecular target: IRAK1(h) (Homo sapiens, UniProt P51617); test: Kinase Profiler; format: biochemical
Procedure: as §1

[15] = molecular target: Lck(h) activated (Homo sapiens, UniProt P06239); test: Kinase Profiler; format: biochemical
Procedure: as §3

[16] = molecular target: MEK2(h) (Homo sapiens, UniProt P36507); test: Kinase Profiler; format: biochemical
Procedure: as §3

[17] = molecular target: MEKK3(h) (Homo sapiens, UniProt Q99759); test: Kinase Profiler; format: biochemical
Procedure: as §3

[18] = molecular target: Met(D1246N)(h) (Homo sapiens, UniProt P08581, D1228N); test: Kinase Profiler; format: biochemical
Procedure: as §3

[19] = molecular target: Met(Y1248D)(h) (Homo sapiens, UniProt P08581, Y1230D); test: Kinase Profiler; format: biochemical
Procedure: as §3

[20] = molecular target: MLK4(h) (Homo sapiens, UniProt Q5TCX8); test: Kinase Profiler; format: biochemical
Procedure: as §1

[21] = molecular target: mTOR/FKBP12(h) (Homo sapiens, UniProt P42345); test: Kinase Profiler; format: biochemical
Procedure: as §3

[22] = molecular target: PEK(h) (Homo sapiens, UniProt Q9NZJ5); test: Kinase Profiler; format: biochemical
Procedure: as §3

[23] = molecular target: PDHK4(h) (Homo sapiens, UniProt Q16654); test: Kinase Profiler; format: biochemical
Procedure: as §1

[24] = molecular target: PKG1β(h) (Homo sapiens, UniProt Q13976); test: Kinase Profiler; format: biochemical
Procedure: as §3

[25] = molecular target: SAPK2a(T106M)(h) (Homo sapiens, UniProt Q16539, T106M); test: Kinase Profiler; format: biochemical
Procedure: as §3

[26] = molecular target: Txk(h) (Homo sapiens, UniProt P42681); test: Kinase Profiler; format: biochemical
Procedure: as §1

[27] = molecular target: RAC1 (Homo sapiens, UniProt P63000); test: Surface plasmon resonance; format: binding; parameters: purchased Cytoskeleton RH01
Procedure: SPR immobilization was performed at 25°C. RAC1, RHOA and CDC42 purified proteins (respectively […] and CD01, Cytoskeleton) were diluted to 5 μg/mL in Na^+ acetate buffer (pH 5.0) and injected into sensor chip CM5 (GE Healthcare) in a Biacore T200 (GE Healthcare) that was activated with NHS/EDC buffer. Approximately 5,000 response units of the purified protein were immobilized on the biosensor chip. Biosensor chips were blocked by an injection of 1 mM ethanolamine (pH 8.5). SPR analysis was performed at 25°C in HBSEP running buffer (5% DMSO) with or without EDTA (20 mM). A41 compound was injected over the RAC1, RHOA or CDC42 functionalized surface in concentration range from 0 to 25μM. Association and dissociation phases were monitored during 60s and 300s, respectively.

Sequence of CDK9/cyclin T1(h) (P50750 whole entry): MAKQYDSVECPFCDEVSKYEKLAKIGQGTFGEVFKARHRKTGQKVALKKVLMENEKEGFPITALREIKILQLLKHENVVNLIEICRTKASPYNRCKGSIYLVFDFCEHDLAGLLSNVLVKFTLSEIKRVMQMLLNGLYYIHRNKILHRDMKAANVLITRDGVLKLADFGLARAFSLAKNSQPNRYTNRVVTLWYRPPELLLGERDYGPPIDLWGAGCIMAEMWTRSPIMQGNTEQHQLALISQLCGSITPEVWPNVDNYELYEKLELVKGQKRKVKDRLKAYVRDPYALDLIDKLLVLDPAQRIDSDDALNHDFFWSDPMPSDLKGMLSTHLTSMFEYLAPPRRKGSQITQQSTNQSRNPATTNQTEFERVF
Sequence of CDK9/cyclin T1(h) (O60563 whole entry partner): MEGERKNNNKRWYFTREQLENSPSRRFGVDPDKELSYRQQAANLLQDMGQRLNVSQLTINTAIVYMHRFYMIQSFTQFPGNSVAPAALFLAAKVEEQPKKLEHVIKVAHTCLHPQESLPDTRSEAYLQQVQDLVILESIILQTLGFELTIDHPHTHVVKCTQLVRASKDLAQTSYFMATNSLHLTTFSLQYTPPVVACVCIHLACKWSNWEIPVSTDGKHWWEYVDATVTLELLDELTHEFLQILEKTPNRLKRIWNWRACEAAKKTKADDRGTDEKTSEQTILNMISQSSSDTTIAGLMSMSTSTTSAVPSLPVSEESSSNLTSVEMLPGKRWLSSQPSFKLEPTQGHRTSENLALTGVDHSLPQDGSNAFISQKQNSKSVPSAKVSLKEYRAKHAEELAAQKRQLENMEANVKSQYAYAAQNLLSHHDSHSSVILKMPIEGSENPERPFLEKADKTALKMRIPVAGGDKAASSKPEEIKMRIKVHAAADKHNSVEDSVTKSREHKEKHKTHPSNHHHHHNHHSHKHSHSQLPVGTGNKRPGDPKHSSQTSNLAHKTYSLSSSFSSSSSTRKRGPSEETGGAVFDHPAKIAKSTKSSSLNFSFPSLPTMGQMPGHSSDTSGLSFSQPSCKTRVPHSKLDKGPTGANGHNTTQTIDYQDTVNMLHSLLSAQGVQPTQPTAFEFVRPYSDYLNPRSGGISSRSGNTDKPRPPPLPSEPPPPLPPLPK
Sequence of GRK5(h) (P34947 whole entry): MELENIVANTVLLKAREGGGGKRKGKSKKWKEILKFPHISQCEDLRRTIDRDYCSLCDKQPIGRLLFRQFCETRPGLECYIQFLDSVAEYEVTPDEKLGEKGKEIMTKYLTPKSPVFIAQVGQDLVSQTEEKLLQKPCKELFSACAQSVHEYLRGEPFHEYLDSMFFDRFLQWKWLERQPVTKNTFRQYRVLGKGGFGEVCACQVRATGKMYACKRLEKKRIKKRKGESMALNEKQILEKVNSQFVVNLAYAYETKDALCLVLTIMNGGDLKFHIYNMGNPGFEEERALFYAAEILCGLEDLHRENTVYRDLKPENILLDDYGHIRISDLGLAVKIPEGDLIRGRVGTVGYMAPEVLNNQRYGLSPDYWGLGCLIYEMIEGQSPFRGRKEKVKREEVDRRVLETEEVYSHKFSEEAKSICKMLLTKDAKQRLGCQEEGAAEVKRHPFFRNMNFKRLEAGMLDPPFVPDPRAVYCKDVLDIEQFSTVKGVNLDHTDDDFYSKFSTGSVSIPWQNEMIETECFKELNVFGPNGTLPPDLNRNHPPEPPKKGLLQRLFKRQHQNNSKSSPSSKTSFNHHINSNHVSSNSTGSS
Sequence of GSK3α(h) (P49840 whole entry): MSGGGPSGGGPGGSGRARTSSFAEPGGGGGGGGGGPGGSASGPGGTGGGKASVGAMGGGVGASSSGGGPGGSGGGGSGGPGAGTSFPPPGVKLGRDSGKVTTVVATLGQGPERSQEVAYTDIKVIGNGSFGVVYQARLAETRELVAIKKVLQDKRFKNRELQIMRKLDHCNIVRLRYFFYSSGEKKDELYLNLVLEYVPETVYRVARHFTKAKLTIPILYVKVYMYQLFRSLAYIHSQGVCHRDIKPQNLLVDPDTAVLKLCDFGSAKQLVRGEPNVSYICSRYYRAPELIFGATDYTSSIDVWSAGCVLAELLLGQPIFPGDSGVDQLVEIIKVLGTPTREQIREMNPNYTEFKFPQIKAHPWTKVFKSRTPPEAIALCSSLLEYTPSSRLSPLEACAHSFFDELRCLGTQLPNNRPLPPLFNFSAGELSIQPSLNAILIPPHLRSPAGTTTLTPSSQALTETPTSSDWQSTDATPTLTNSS
Sequence of CLK1(h) (P49759 whole entry): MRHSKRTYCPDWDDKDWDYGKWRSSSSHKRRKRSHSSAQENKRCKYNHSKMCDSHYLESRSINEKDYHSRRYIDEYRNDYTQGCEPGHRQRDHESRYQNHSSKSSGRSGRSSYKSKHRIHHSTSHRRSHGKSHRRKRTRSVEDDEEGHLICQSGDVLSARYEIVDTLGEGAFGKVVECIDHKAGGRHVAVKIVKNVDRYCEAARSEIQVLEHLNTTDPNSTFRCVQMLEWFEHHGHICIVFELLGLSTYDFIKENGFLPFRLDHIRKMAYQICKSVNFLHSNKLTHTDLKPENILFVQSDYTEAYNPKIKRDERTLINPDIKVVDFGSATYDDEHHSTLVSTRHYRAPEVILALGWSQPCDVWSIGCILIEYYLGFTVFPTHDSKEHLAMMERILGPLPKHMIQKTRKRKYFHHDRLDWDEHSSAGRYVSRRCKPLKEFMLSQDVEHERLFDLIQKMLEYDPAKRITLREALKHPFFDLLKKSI
Sequence of Txk(h) (P42681 whole entry): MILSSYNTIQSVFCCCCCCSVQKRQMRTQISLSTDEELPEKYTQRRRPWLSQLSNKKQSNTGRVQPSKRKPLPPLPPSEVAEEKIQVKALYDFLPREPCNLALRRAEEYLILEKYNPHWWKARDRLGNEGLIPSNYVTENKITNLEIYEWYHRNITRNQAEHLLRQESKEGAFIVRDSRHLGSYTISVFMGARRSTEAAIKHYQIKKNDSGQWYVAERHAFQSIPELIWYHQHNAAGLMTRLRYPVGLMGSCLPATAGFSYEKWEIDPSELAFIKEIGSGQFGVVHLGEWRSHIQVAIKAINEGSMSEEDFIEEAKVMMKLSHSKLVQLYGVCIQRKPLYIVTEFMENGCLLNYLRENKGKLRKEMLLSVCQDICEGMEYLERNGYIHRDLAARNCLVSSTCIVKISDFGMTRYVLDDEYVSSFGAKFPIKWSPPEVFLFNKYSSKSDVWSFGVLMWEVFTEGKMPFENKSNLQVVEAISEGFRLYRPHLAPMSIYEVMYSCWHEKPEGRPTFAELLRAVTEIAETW
Sequence of PDHK4(h) (Q16654 whole entry): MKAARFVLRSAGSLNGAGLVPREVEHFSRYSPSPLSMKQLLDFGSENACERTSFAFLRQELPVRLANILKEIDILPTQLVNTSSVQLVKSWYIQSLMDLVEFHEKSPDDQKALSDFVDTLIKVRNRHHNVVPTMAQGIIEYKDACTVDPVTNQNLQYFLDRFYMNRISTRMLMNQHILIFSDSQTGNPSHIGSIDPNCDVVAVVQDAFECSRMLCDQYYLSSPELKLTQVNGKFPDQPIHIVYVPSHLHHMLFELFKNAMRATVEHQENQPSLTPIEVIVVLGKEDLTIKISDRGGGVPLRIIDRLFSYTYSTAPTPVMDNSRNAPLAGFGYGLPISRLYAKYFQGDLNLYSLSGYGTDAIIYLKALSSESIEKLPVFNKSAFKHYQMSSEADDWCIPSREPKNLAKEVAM
Sequence of Aurora-A(h) (O14965 whole entry): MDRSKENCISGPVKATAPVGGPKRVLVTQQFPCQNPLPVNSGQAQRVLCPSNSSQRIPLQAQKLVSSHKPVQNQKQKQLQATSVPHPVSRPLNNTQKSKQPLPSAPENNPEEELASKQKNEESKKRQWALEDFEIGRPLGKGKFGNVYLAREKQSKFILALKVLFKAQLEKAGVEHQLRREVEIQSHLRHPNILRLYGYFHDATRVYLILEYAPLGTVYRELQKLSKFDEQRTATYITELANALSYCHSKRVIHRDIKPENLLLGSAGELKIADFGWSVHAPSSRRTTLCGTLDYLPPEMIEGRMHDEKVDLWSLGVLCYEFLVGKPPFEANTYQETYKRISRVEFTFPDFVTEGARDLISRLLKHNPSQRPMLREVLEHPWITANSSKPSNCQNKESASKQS
Sequence of Lck(h) activated (P06239 whole entry): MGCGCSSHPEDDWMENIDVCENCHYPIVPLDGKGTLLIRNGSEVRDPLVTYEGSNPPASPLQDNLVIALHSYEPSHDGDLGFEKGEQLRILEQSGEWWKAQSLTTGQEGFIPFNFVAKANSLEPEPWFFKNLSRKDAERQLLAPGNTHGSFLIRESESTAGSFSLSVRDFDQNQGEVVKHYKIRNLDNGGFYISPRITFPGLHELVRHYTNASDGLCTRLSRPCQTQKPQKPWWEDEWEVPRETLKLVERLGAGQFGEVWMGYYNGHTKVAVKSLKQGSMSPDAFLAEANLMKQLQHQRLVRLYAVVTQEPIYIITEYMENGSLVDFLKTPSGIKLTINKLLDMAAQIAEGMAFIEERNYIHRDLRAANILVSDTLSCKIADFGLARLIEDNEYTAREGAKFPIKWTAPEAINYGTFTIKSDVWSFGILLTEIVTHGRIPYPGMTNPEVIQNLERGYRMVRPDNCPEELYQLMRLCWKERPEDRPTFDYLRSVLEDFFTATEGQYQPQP
Sequence of SAPK2a(T106M)(h) (Q16539 whole entry T106M): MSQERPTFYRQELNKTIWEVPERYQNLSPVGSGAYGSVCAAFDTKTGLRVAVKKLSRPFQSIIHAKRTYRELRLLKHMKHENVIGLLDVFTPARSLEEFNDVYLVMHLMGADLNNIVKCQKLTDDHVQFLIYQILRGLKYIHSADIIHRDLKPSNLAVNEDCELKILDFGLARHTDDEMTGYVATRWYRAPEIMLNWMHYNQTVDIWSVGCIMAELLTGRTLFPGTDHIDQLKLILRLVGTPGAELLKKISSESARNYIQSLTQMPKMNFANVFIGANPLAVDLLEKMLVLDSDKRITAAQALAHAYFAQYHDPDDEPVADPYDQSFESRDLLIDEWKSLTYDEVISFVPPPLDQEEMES

## COc1ccc(OC)c(NS(=O)(=O)c2ccc(NC(=O)CCSc3ccc(C)cc3)cc2)c1 [Compound A41]
[1]; 4 weeks post resection
  frequency of primary tumor re-growth (mice with regrowth): 40%
  survival rate: 80%
[1]; after primary tumor resection
  metastasis frequency: significantly reduced metastasis frequency
[2]
  % inh.: 5%
[3]
  % inh.: 3%
[4]
  % inh.: -8%
[5]
  % inh.: 6%
[6]
  Activity(%): 124%
[7]
  Activity(%): 97%
[8]
  Activity(%): 92%
[9]
  Activity(%): 81%
[10]
  Activity(%): 117%
[11]
  Activity(%): 112%
[12]
  Activity(%): 101%
[13]
  Activity(%): 90%
[14]
  Activity(%): 104%
[15]
  Activity(%): 90%
[16]
  Activity(%): 109%
[17]
  Activity(%): 109%
[18]
  Activity(%): 119%
[19]
  Activity(%): 118%
[20]
  Activity(%): 104%
[21]
  Activity(%): 104%
[22]
  Activity(%): 102%
[23]
  Activity(%): 93%
[24]
  Activity(%): 105%
[25]
  Activity(%): 98%
[26]
  Activity(%): 118%
[27]; in the presence of 20 mM EDTA
  binding to RAC1: strongly increased
[27]; purified RAC1-GDP, without EDTA
  pKd: 7.52
